Measurements published in patent publication US20250382332A1, “NOVEL ALPHA-FACTOR BASED PEPTIDES WITH ANTIFUNGAL ACTIVITY” (INVAIO SCIENCES, INC., priority 2024, published 2025).
Peptide text beside a SMILES is read from it.

System: Botrytis cinerea (B05.10)
Experiment: Resazurin antifungal assay of 180 alpha-factor peptide variants towards Botrytis (Example 2)
Format: cell-based
Set-up: key to active against Botrytis at 15 μM / active against Botrytis at 10 μM: Peptides that showed greater than 90% inhibition were considered active against Botrytis
Conditions: for Inhibition at 50 μM / Inhibition at 100 μM / Inhibition at 10 μM / Inhibition at 15 μM / Inhibition at 20 μM: % inhibition of fungal growth, Botrytis conidia, resazurin; for Inhibition at 50 μM: peptide 50 μM; for Inhibition at 100 μM: peptide 100 μM; for Inhibition at 10 μM: peptide 10 μM; for Inhibition at 20 μM: peptide 20 μM
Summary of the method: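 B. cinerea B05.10 conidia (5000/well) were exposed to peptides at 100, 50, 20, 15 and 10 μM final for 24 h at 20° C. Resazurin was then added and fluorescence read at 570/620 nm. Percent growth inhibition was calculated against conidia-only wells, with four technical replicates.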

Compound	Inhibition at 50 μM [%]	Inhibition at 100 μM [%]	Inhibition at 10 μM [%]	Inhibition at 15 μM (peptide 15 μM) [%]	Inhibition at 20 μM [%]	active against Botrytis at 15 μM (peptide 15 μM)
CSCC[C@H](NC(=O)[C@@H]1CCCN1C(=O)[C@H](CCC(N)=O)NC(=O)CNC(=O)[C@@H](NC(=O)[C@H](CC(N)=O)NC(=O)[C@H](CC(C)C)NC(=O)[C@H](CO)NC(=O)[C@H](CC(C)C)NC(=O)[C@H](Cc1c[nH]c2ccccc12)NC(=O)[C@H](Cc1c[nH]cn1)NC(=O)[C@@H](N)Cc1c[nH]c2ccccc12)[C@@H](C)O)C(=O)N[C@@H](Cc1ccc(O)cc1)C(=O)O [compound 46] (H-WHWLSLNTGQPMY-OH; N-terminus and C-terminus assumed)	<90	97.03				
CSCC[C@H](NC(=O)[C@@H]1CCCN1C(=O)[C@H](CCC(N)=O)NC(=O)CNC(=O)[C@@H]1CCCN1C(=O)[C@H](Cc1c[nH]c2ccccc12)NC(=O)[C@H](CC(C)C)NC(=O)[C@H](CCC(=O)O)NC(=O)[C@H](CC(C)C)NC(=O)[C@H](CC(=O)O)NC(=O)[C@H](Cc1c[nH]cn1)NC(=O)[C@@H](N)CCCCN)C(=O)N[C@@H](Cc1ccc(O)cc1)C(=O)O [compound 47] (H-KHDLELWPGQPMY-OH; N-terminus and C-terminus assumed)	<90	<90				
CSCC[C@H](NC(=O)[C@@H]1CCCN1C(=O)[C@H](CCC(N)=O)NC(=O)CNC(=O)[C@@H]1CCCN1C(=O)[C@H](CCCCN)NC(=O)[C@H](CC(C)C)NC(=O)[C@H](C)NC(=O)[C@H](CC(C)C)NC(=O)CNC(=O)CNC(=O)[C@@H](N)Cc1c[nH]c2ccccc12)C(=O)N[C@@H](Cc1ccc(O)cc1)C(=O)O [compound 48] (H-WGGLALKPGQPMY-OH; N-terminus and C-terminus assumed)	<90	<90				
CSCC[C@H](NC(=O)[C@@H]1CCCN1C(=O)[C@H](CCC(N)=O)NC(=O)CNC(=O)[C@@H]1CCCN1C(=O)[C@H](Cc1ccc(O)cc1)NC(=O)[C@H](CC(C)C)NC(=O)[C@H](CCCCN)NC(=O)[C@H](CC(C)C)NC(=O)[C@H](Cc1c[nH]c2ccccc12)NC(=O)[C@H](CCC(=O)O)NC(=O)[C@@H]1CCCN1)C(=O)N[C@@H](Cc1ccc(O)cc1)C(=O)O [compound 49] (H-PEWLKLYPGQPMY-OH; N-terminus and C-terminus assumed)	<90	<90				
CSCC[C@H](NC(=O)[C@H](CO)NC(=O)[C@H](CO)NC(=O)CNC(=O)[C@@H]1CCCN1C(=O)[C@H](CCCCN)NC(=O)[C@H](CC(C)C)NC(=O)[C@H](CCC(N)=O)NC(=O)[C@H](CC(C)C)NC(=O)[C@@H](NC(=O)[C@H](CCCNC(=N)N)NC(=O)[C@@H](N)Cc1c[nH]c2ccccc12)C(C)C)C(=O)N[C@@H](Cc1ccc(O)cc1)C(=O)O [compound 50] (H-WRVLQLKPGSSMY-OH; N-terminus and C-terminus assumed)	<90	<90				
CC[C@H](C)[C@H](NC(=O)[C@H](CCCNC(=N)N)NC(=O)[C@@H](NC(=O)[C@H](Cc1c[nH]c2ccccc12)NC(=O)[C@H](Cc1c[nH]cn1)NC(=O)[C@@H](N)Cc1c[nH]c2ccccc12)C(C)C)C(=O)N[C@@H](Cc1c[nH]c2ccccc12)C(=O)N1CCC[C@H]1C(=O)NCC(=O)N[C@@H](CCC(N)=O)C(=O)N1CCC[C@H]1C(=O)N[C@@H](CCSC)C(=O)N[C@@H](Cc1ccc(O)cc1)C(=O)O [compound 51] (H-WHWVRIWPGQPMY-OH; N-terminus and C-terminus assumed)	100	100	<90	<90	97.13	
CC[C@H](C)[C@H](NC(=O)[C@H](CCCNC(=N)N)NC(=O)[C@H](CC(C)C)NC(=O)[C@H](Cc1c[nH]c2ccccc12)NC(=O)[C@H](Cc1c[nH]cn1)NC(=O)[C@@H](N)CCCCN)C(=O)N[C@@H](CCCCN)C(=O)N[C@@H](Cc1c[nH]c2ccccc12)C(=O)NCC(=O)N[C@@H](CCC(=O)O)C(=O)N1CCC[C@H]1C(=O)N[C@@H](CCSC)C(=O)N[C@@H](Cc1ccc(O)cc1)C(=O)O [compound 52] (H-KHWLRIKWGEPMY-OH; N-terminus and C-terminus assumed)	100	100	<90	97.66	100	active
CSCC[C@H](NC(=O)[C@@H]1CCCN1C(=O)[C@H](CCC(N)=O)NC(=O)CNC(=O)[C@@H](NC(=O)[C@H](CCCCN)NC(=O)[C@H](CC(C)C)NC(=O)[C@H](CCCNC(=N)N)NC(=O)[C@@H](NC(=O)[C@H](Cc1c[nH]c2ccccc12)NC(=O)[C@H](CCCCN)NC(=O)[C@@H](N)Cc1c[nH]c2ccccc12)C(C)C)[C@@H](C)O)C(=O)N[C@@H](Cc1ccc(O)cc1)C(=O)O [compound 53] (H-WKWVRLKTGQPMY-OH; N-terminus and C-terminus assumed)	100	100	<90	<90	100	
CC[C@H](C)[C@H](NC(=O)[C@H](CCSC)NC(=O)[C@H](Cc1c[nH]cn1)NC(=O)[C@@H](N)CCCCN)C(=O)N[C@@H](CCC(N)=O)C(=O)N[C@@H](CC(C)C)C(=O)N[C@@H](Cc1ccc(O)cc1)C(=O)N[C@@H](Cc1c[nH]c2ccccc12)C(=O)NCC(=O)N[C@@H](CCC(N)=O)C(=O)N1CCC[C@H]1C(=O)N[C@@H](CCSC)C(=O)N[C@@H](Cc1ccc(O)cc1)C(=O)O [compound 54] (H-KHMIQLYWGQPMY-OH; N-terminus and C-terminus assumed)	100	100	<90	<90	93.21	
CSCC[C@H](NC(=O)CNC(=O)[C@H](CO)NC(=O)CNC(=O)[C@@H]1CCCN1C(=O)[C@H](CCCCN)NC(=O)[C@H](CC(C)C)NC(=O)[C@H](CCCNC(=N)N)NC(=O)[C@H](CC(C)C)NC(=O)[C@H](Cc1ccc(O)cc1)NC(=O)[C@H](CCCNC(=N)N)NC(=O)[C@@H](N)Cc1c[nH]c2ccccc12)C(=O)N[C@@H](Cc1ccc(O)cc1)C(=O)O [compound 55] (H-WRYLRLKPGSGMY-OH; N-terminus and C-terminus assumed)	100	100	<90	<90	99.43	
CSCC[C@H](NC(=O)[C@@H]1CCCN1C(=O)[C@H](CCC(N)=O)NC(=O)CNC(=O)[C@H](CCCNC(=N)N)NC(=O)[C@H](CCCCN)NC(=O)[C@H](CC(C)C)NC(=O)[C@H](CCCCN)NC(=O)[C@H](CC(C)C)NC(=O)[C@H](CO)NC(=O)[C@H](Cc1c[nH]cn1)NC(=O)[C@@H](N)Cc1c[nH]c2ccccc12)C(=O)N[C@@H](Cc1ccc(O)cc1)C(=O)O [compound 56] (H-WHSLKLKRGQPMY-OH; N-terminus and C-terminus assumed)	100	100	<90	<90	99.84	
CC[C@H](C)[C@H](NC(=O)[C@H](C)NC(=O)[C@H](CC(C)C)NC(=O)[C@H](Cc1c[nH]c2ccccc12)NC(=O)[C@H](Cc1c[nH]cn1)NC(=O)[C@@H](N)Cc1c[nH]c2ccccc12)C(=O)N[C@@H](Cc1ccccc1)C(=O)N[C@@H](CCCNC(=N)N)C(=O)NCC(=O)N[C@@H](CCC(N)=O)C(=O)N1CCC[C@H]1C(=O)N[C@@H](CCSC)C(=O)N[C@@H](Cc1ccc(O)cc1)C(=O)O [compound 57] (H-WHWLAIFRGQPMY-OH; N-terminus and C-terminus assumed)	100	100	3.45		<90	
CC[C@H](C)[C@H](NC(=O)[C@H](CCC(N)=O)NC(=O)[C@@H](NC(=O)[C@H](Cc1c[nH]c2ccccc12)NC(=O)[C@H](CCCCN)NC(=O)[C@@H](N)Cc1c[nH]c2ccccc12)C(C)C)C(=O)N[C@@H](CCCCN)C(=O)N[C@@H](CCCCN)C(=O)NCC(=O)N[C@@H](C)C(=O)N1CCC[C@H]1C(=O)N[C@@H](CCSC)C(=O)N[C@@H](Cc1ccc(O)cc1)C(=O)O [compound 58] (H-WKWVQIKKGAPMY-OH; N-terminus and C-terminus assumed)	100	100	<90		<90	
CC[C@H](C)[C@H](NC(=O)[C@H](Cc1c[nH]c2ccccc12)NC(=O)[C@H](Cc1c[nH]cn1)NC(=O)[C@@H](N)CCCCN)C(=O)N[C@H](C(=O)N[C@@H](CC(C)C)C(=O)N[C@@H](CCCCN)C(=O)N[C@@H](CO)C(=O)NCC(=O)N[C@@H](CCSC)C(=O)N1CCC[C@H]1C(=O)N[C@@H](CCSC)C(=O)N[C@@H](Cc1ccc(O)cc1)C(=O)O)[C@@H](C)O [compound 59] (H-KHWITLKSGMPMY-OH; N-terminus and C-terminus assumed)	100	100	<90	<90	90.97	
